This assay has as its target T1, Histone deacetylase 8 (Homo sapiens, UniProt Q9BY41).
T1 sequence (Q9BY41 whole entry): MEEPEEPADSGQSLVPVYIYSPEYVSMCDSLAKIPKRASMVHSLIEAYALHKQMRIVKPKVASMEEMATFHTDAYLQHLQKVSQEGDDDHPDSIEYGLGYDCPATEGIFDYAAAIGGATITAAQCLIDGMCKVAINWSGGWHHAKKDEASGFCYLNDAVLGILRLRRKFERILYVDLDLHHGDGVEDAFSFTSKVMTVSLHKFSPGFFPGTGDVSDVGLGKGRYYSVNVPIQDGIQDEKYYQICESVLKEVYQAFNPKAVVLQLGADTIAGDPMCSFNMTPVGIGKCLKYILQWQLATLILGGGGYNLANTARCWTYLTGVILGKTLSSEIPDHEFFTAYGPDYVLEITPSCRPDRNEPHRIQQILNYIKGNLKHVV
Kind of assay: Inhibition of human recombinant HDAC8 using fluorescent acetylated substrate.

A word on the IC50: it is the concentration that gives 50% inhibition. In general, Ki refers to a measure of affinity in units of concentration, obtained from inhibition or displacement. In the case of `[N-]=[N+]=NCc1cc(COc2ccc(NC(=O)CCCCCCC(=O)NO)cc2)cc(N=[N+]=[N-])c1`, the 50% inhibitory concentration (IC50) is 7.34 µM and the Ki came to 6.59 µM.

For `[N-]=[N+]=Nc1ccc(-c2csc(NC(=O)CCCCCCC(=O)NO)n2)cc1`, the IC50 came to 2.71 µM and the Ki is 2.43 µM.
